According to patent publication US20240239743A1, “1-(4-{1-[(E)-4-CYCLOHEXYL-3-TRIFLUOROMETHYLBENZYLOXYIMINO]-ETHYL}-2-ETHYL-BENZYL)-AZETIDINE-3-CARBOXYLIC ACID, (E)-BUT-2-ENEDIOIC ACID” (Novartis AG, priority 2008, published 2024):

Legend:
[1] = pressure of 10 tons for 5 minutes; Raman microscope
Protocol: Crystalline form A was also tested for pressure stability by exposing a few milligrams of this form to a pressure of 10 tons for 5 minutes.

[2] = Dynamic Vapour Sorption (hygroscopicity); type: physicochemical; conditions: 50-0-95-50% r.h.
Description: Dynamic Vapour Sorption measurements were taken using a DVS-1 water vapour sorption analyzer (Surface Measurement Systems Ltd.) or a Projekt Messtechnik SPS11-100n. The sample was allowed to equilibrate at 50% r.h. before starting a pre-defined humidity program (50-0-95-50% r.h., scanning with 5% Δr.h. hour-1 and with several isohumid equilibration periods).

[3] = Stability of hemifumarate salt solution relative to free base solution at elevated temperature; type: physicochemical; conditions: solution/suspension in ethanol; 40° C., 50° C. and 60° C. for one week; compared with free base
Protocol: 30 g of compound I was prepared using the method of Example 3 of WO2004/103306. The hemifumarate salt of the invention was then prepared by reacting a suspension of 30.0 g of compound I and […] fumaric acid (5% conc.) in 200 g ethanol absolute (>99.9%) at room temperature (25° C.).
The stability of the hemifumarate salt solution relative to the free base solution was then tested by subjecting both solutions to conditions of elevated temperature (40° C., 50° C. and 60° C.) for a period of one week.

SMILES | pressure stability (change in crystal form) [1] | hygroscopicity [2] | stability of the hemifumarate salt solution relative to the free base solution [3]
CCc1cc(/C(C)=N/OCc2ccc(C3CCCCC3)c(C(F)(F)F)c2)ccc1CN1CC(C(=O)O)C1.CCc1cc(/C(C)=N/OCc2ccc(C3CCCCC3)c(C(F)(F)F)c2)ccc1CN1CC(C(=O)O)C1.O=C(O)/C=C/C(=O)O [Crystalline Form A] | no change in form was observed | low hygroscopicity | –
CCc1cc(/C(C)=N/OCc2ccc(C3CCCCC3)c(C(F)(F)F)c2)ccc1CN1CC(C(=O)O)C1.O=C(O)/C=C/C(=O)O [hemifumarate salt, 1-(4-{1-[(E)-4-Cyclohexyl-3-trifluoromethyl-benzyloxyimino]-ethyl}-2-ethyl-benzyl)-azetidine-3-carboxylic acid, (E)-but-2-enedioic acid] | – | – | superior stability
